Experimental data taken from patent publication US4016159A, “Acylamino-cephem-carboxylic acids containing an amidino or guanidino group in the molecule” (Hoechst Aktiengesellschaft, priority 1973, dated 1977).
Values after ≈ are worked out from the molar mass of the structure shown. Where a name gives a salt, the structure may show the parent alone.

Key:
Assay type in all cases: cell-based
[1] = system: Staphylococcus aureus 285; assay: Minimum inhibition concentration (MIC), Table 1; settings: for MIC: Staphylococcus aureus, 285, Germ: Staphylococcus aureus 285, read-out: Minimum inhibition concentration (MIC); for Minimum inhibition concentration (MIC): Germ: Staphylococcus aureus 285
Description: (§1) Minimum inhibition concentration (MIC) in γ/ml
Germ: Staphylococcus aureus 285

[2] = system: Staphylococcus aureus SG 511; assay: Minimum inhibition concentration (MIC), Table 5; settings: for MIC: Staphylococcus aureus, SG511, Germ: Staphylococcus aureus SG 511, read-out: Minimum inhibition concentration (MIC); for Minimum inhibition concentration (MIC): Germ: Staphylococcus aureus SG 511
Description: as §1
Germ: Staphylococcus aureus SG 511

Streptococcus D = assay: Minimum inhibition concentration (MIC), Table 4; settings: Germ: Streptococcus D; for MIC: Streptococcus, read-out: Minimum inhibition concentration (MIC)
Description: as §1

Streptococcus pyogenes A = assay: Minimum inhibition concentration (MIC), Table 3; settings: Germ: Streptococcus pyogenes A; for MIC: read-out: Minimum inhibition concentration MIC
Description: Minimum inhibition concentration MIC in γ/ml
Germ: Streptococcus pyogenes A

MIC [1]	MIC [2]	MIC (Streptococcus D)	MIC (Streptococcus pyogenes A)	SMILES	other results
0.5 to 1.25 µg/mL (≈ 0.86 to 2.15 µM)	0.0625 to 0.078 µg/mL (≈ 0.107 to 0.134 µM)	10 to 50 µg/mL (≈ 17.2 to 86 µM)	0.000391 to 0.0078 µg/mL (≈ 0.000672 to 0.0134 µM)	N=C(N)c1ccc(OCC(=O)NC2C(=O)N3C(C(=O)O)=C(CSc4nc(-c5ccccc5)cs4)CSC23)cc1 (centres unmarked) [Example 27, 3-[(4-phenyl-1,3-thiazole-2-yl)-thiomethyl]-7-(4-amidinophenoxy-acetamido)-Δ 3-cephem-4-carboxylic acid]	–
–	0.0196 to 0.0391 µg/mL (≈ 0.0346 to 0.069 µM)	–	0.000391 to 0.0078 µg/mL (≈ 0.00069 to 0.0138 µM)	N=C(N)c1ccc(OCC(=O)NC2C(=O)N3C(C(=O)O)=C(CSc4nnc(-c5ccccc5)o4)CSC23)cc1 (centres unmarked) [Example 28, 3-[(5-5-phenyl-1,3,4-oxadiazole-2-yl)-thiomethyl]-7-(4-amidino-phenoxyacetamido)-Δ 3-cephem-4-carboxylic acid]	Minimum inhibition concentration (MIC) [1]: 0.156 to 0.391 µg/mL; Minimum inhibition concentration (MIC) (Streptococcus D): 10 to 50 µg/mL
0.5 to 1.25 µg/mL (≈ 1 to 2.5 µM)	0.0625 to 0.078 µg/mL (≈ 0.125 to 0.156 µM)	10 to 50 µg/mL (≈ 20 to 100 µM)	0.000391 to 0.0078 µg/mL (≈ 0.000783 to 0.0156 µM)	N=C(N)c1ccc(OCC(=O)NC2C(=O)N3C(C(=O)O)=C(CSc4ccccn4)CSC23)cc1 (centres unmarked) [Example 29, 3-[(pyride-2-yl)-thiomethyl]-7-(4-amidinophenoxyacetamido)-Δ 3-cephem-4-carboxylic acid]	–
0.5 to 1.25 µg/mL (≈ 0.959 to 2.4 µM)	0.0625 to 0.078 µg/mL (≈ 0.12 to 0.15 µM)	10 to 50 µg/mL (≈ 19.2 to 95.9 µM)	–	N=C(N)c1ccc(OCC(=O)NC2C(=O)N3C(C(=O)O)=C(CSc4nnc(N)s4)CSC23)cc1 (centres unmarked) [Example 49, 3-[(5-amino-1,3,4-thiadiazole-2-yl)-thiomethyl]-7-(4-amidinophenoxyacetamido)-Δ 3-cephem-4-carboxylic acid]	–
1.6 to 2.5 µg/mL (≈ 2.8 to 4.38 µM)	–	10 to 50 µg/mL (≈ 17.5 to 87.6 µM)	0.008 to 0.0156 µg/mL (≈ 0.014 to 0.0273 µM)	CCCCc1nnc(SCC2=C(C(=O)O)N3C(=O)C(NC(=O)Cc4ccc(C5=NCCCN5)cc4)C3SC2)o1 (centres unmarked) [Example 81, 3-[(5-n-butyl-1,3,4-oxadiazole-2-yl)-thiomethyl]-7-[4-(1,4,5,6-tetrahydropyrimide-2-yl)-phenyl-acetamido]-Δ 3-cephem-4-carboxylic acid]	–
0.5 to 1.25 µg/mL (≈ 0.805 to 2.01 µM)	–	10 to 50 µg/mL (≈ 16.1 to 80.5 µM)	0.008 to 0.0156 µg/mL (≈ 0.0129 to 0.0251 µM)	O=C(Cc1ccc(C2=NCCCN2)cc1)NC1C(=O)N2C(C(=O)O)=C(CSC3=NNC(c4ccccc4)=CS3)CSC12 (centres unmarked) [Example 99, 3-[(5-phenyl-4H-1,3,4-thiadiazine-2-yl)-thiomethyl]-7[4-(1,4,5,6-tetrahydropyrimide-2-yl)-phenylacetamido]-Δ3-cephem-4-carboxylic acid]	–
1.6 to 2.5 µg/mL (≈ 2.94 to 4.6 µM)	–	10 to 50 µg/mL (≈ 18.4 to 92 µM)	0.000391 to 0.0078 µg/mL (≈ 0.000719 to 0.0143 µM)	CCc1csc(SCC2=C(C(=O)O)N3C(=O)C(NC(=O)Cc4ccc(C5=NCCN5)cc4)C3SC2)n1 (centres unmarked) [Example 115, 3-[(4-ethyl-thiazole-2-yl)-thiomethyl]-7-[4-(imidazoline-2-yl)-phenylacetamido]-Δ3-cephem-4-carboxylic acid]	–
0.156 to 0.391 µg/mL (≈ 0.283 to 0.71 µM)	0.0625 to 0.078 µg/mL (≈ 0.114 to 0.142 µM)	–	0.008 to 0.0156 µg/mL (≈ 0.0145 to 0.0283 µM)	COc1cc(C(=N)N)ccc1OCC(=O)NC1C(=O)N2C(C(=O)O)=C(CSc3nnc(C)s3)CSC12 (centres unmarked) [Example 128, 3-[(5-methyl-1,3,4-thiadizole-2-yl)-thiomethyl]-7(4-amidino-2-methoxy-phenoxy-acetamido)-Δ3-cephem-4-carboxylic acid]	–

The remaining lines, values behind:

SMILES	MIC [1]	MIC [2]	MIC (Streptococcus D)	MIC (Streptococcus pyogenes A)	other results
Cc1csc(SCC2=C(C(=O)O)N3C(=O)C(NC(=O)Cc4ccc(C(=N)N)cc4)C3SC2)n1 (centres unmarked) [Example 5, 3-[(4-methyl-thioazole-2-yl)-thiomethyl]-7-(4-amidinophenyl-acetamido)-Δ3-cephem-4-carboxylic acid]	0.156 to 0.391 µg/mL (≈ 0.31 to 0.776 µM)	0.0625 to 0.078 µg/mL (≈ 0.124 to 0.155 µM)	10 to 50 µg/mL (≈ 19.9 to 99.3 µM)	–	–
N=C(N)Nc1ccc(CC(=O)NC2C(=O)N3C(C(=O)O)=C(CSc4nccs4)CSC23)cc1 (centres unmarked) [Example 8]	0.5 to 1.25 µg/mL (≈ 0.991 to 2.48 µM)	0.0625 to 0.078 µg/mL (≈ 0.124 to 0.155 µM)	10 to 50 µg/mL (≈ 19.8 to 99.1 µM)	–	–
O=C(Cc1ccc(C2=NCCCN2)cc1)NC1C(=O)N2C(C(=O)O)=C(CSc3nc(-c4ccccc4)cs3)CSC12 (centres unmarked) [Example 14, 3-[(4-phenyl-thiazole-2-yl)-thiomethyl]-7-[4-(1,4,5,6-tetrahydropyrimide-2-yl)-phenylacetamido]-Δ 3-cephem-4-carboxylic acid]	0.5 to 1.25 µg/mL (≈ 0.825 to 2.06 µM)	0.0625 to 0.078 µg/mL (≈ 0.103 to 0.129 µM)	10 to 50 µg/mL (≈ 16.5 to 82.5 µM)	0.008 to 0.0156 µg/mL (≈ 0.0132 to 0.0258 µM)	–
Cc1nnc(SCC2=C(C(=O)O)N3C(=O)C(NC(=O)Cc4ccc(C(=N)N)cc4)C3SC2)s1 (centres unmarked) [Example 26, 3-[(5-methyl-1,3,4-thiadiazole-2-yl)-thiomethyl]-7-(4-amidinophenylacetamido)-Δ 3-cephem-4-carboxylic acid]	–	0.0625 to 0.078 µg/mL (≈ 0.124 to 0.155 µM)	10 to 50 µg/mL (≈ 19.8 to 99.1 µM)	–	–
Cc1nnc(SCC2=C(C(=O)O)N3C(=O)C(NC(=O)COc4ccc(C(=N)N)cc4)C3SC2)s1 (centres unmarked) [Example 35, 3-[(5-methyl-1,3,4-thiadiazole-2-yl)-thiomethyl]-7-[4-amidinophenoxy-acetamido]-Δ 3-cephem-4-carboxylic acid hydrochloride]	–	–	10 to 50 µg/mL	0.000391 to 0.0078 µg/mL	Minimum inhibition concentration (MIC) ([2]; hydrochloride): 0.0625 to 0.078 µg/mL
Cc1nnc(SCC2=C(C(=O)O)N3C(=O)C(NC(=O)COc4ccc(C(=N)N)cc4)C3SC2)s1 (centres unmarked) [Example 46, 3-[(5-methyl-1,3,4-thiadiazole-2-yl)-thiomethyl]-7-[4-amidinophenoxyacetamido]-Δ 3-cephem-4-carboxylic acid]	0.5 to 1.25 µg/mL (≈ 0.96 to 2.4 µM)	–	–	–	Minimum inhibition concentration (MIC) [2]: 0.0196 to 0.0391 µg/mL
N=C(N)c1ccc(CC(=O)NC2C(=O)N3C(C(=O)O)=C(CSc4nnco4)CSC23)cc1 (centres unmarked) [Example 61, 3-[(1,3,4-oxadiazole-2-yl)-thiomethyl]-7-(4-amidino-phenylacetamido)-Δ 3-cephem-4-carboxylic acid]	0.5 to 1.25 µg/mL (≈ 1.05 to 2.63 µM)	–	10 to 50 µg/mL (≈ 21.1 to 105 µM)	0.008 to 0.0156 µg/mL (≈ 0.0169 to 0.0329 µM)	–
Cc1nnc(SCC2=C(C(=O)O)N3C(=O)C(NC(=O)COc4ccc(C5=NCCN5)cc4)C3SC2)s1 (centres unmarked) [Example 75, 3-[(5-methyl-1,3,4-thiadiazole-2-yl)-thiomethyl]-7-[4-(imidazoline-2-yl)-phenoxyacetamido]-Δ 3-cephem-4-carboxylic acid]	0.5 to 1.25 µg/mL (≈ 0.915 to 2.29 µM)	–	10 to 50 µg/mL (≈ 18.3 to 91.5 µM)	0.000391 to 0.0078 µg/mL (≈ 0.000715 to 0.0143 µM)	–
CCCc1nnc(SCC2=C(C(=O)O)N3C(=O)C(NC(=O)Cc4ccc(C5=NCCCN5)cc4)C3SC2)s1 (centres unmarked) [Example 79, 3-[(5-n-propyl-1,3,4-thiadiazole-2-yl)-thiomethyl]-7-[4-(1,4,5,6-tetrahydropyrimide-2-yl)-phenylacetamido]-Δ 3-cephem-4-carboxylic acid]	0.5 to 1.25 µg/mL (≈ 0.873 to 2.18 µM)	–	10 to 50 µg/mL (≈ 17.5 to 87.3 µM)	0.008 to 0.0156 µg/mL (≈ 0.014 to 0.0272 µM)	–
CCCc1nnc(SCC2=C(C(=O)O)N3C(=O)C(NC(=O)Cc4ccc(C5=NCCCN5)cc4)C3SC2)o1 (centres unmarked) [Example 82, 3-[(5-n-propyl-1,3,4-oxadiazole-2-yl)-thiomethyl]-7-[4-(1,4,5,6-tetrahydropyrimide-2-yl)-phenylacetamido-]-Δ 3-cephem-4-carboxylic acid]	0.5 to 1.25 µg/mL (≈ 0.898 to 2.25 µM)	–	10 to 50 µg/mL (≈ 18 to 89.8 µM)	0.008 to 0.0156 µg/mL (≈ 0.0144 to 0.028 µM)	–
O=C(Cc1ccc(C2=NCCCN2)cc1)NC1C(=O)N2C(C(=O)O)=C(CSc3nnc(-c4ccccc4)o3)CSC12 (centres unmarked) [Example 83, 3-[(5-phenyl-1,3,4-oxadiazole-2-yl)-thiomethyl]-7-[4-(1,4,5,6-tetrahydropyrimide-2-yl)-phenylacetamido]-Δ 3-cephem-4-carboxylic acid]	–	–	10 to 50 µg/mL (≈ 16.9 to 84.6 µM)	0.000391 to 0.0078 µg/mL (≈ 0.000662 to 0.0132 µM)	Minimum inhibition concentration (MIC) [1]: 0.5 to 1.25 µg/mL
N=C(N)c1ccc(CC(=O)NC2C(=O)N3C(C(=O)O)=C(CSc4ccc5ccccc5n4)CSC23)cc1 (centres unmarked) [Example 91, 3-quinoline[-2-yl-thiomethyl]-7-[4-amidino-phenyl-acetamido]-Δ 3-cephem-4-carboxylic acid]	0.156 to 0.391 µg/mL (≈ 0.292 to 0.733 µM)	0.0625 to 0.078 µg/mL (≈ 0.117 to 0.146 µM)	–	0.000391 to 0.0078 µg/mL (≈ 0.000733 to 0.0146 µM)	–
CCc1nnc(SCC2=C(C(=O)O)N3C(=O)C(NC(=O)Cc4ccc(C5=NCCCN5)cc4)C3SC2)[nH]1 (centres unmarked) [Example 95, 3-[(5-ethyl-triazole-2-yl)-thiomethyl]-7-[4-(1,4,5,6-tetrahydro-pyrimide-2-yl)-phenylacetamido]-Δ3-cephem-4-carboxylic acid]	–	–	–	–	Minimum inhibition concentration (MIC) [1]: 1.6 to 2.5 µg/mL; Minimum inhibition concentration (MIC) (Streptococcus pyogenes A): 0.008 to 0.0156 µg/mL; Minimum inhibition concentration (MIC) (Streptococcus D): 10 to 50 µg/mL
Cc1cc(C)nc(SCC2=C(C(=O)O)N3C(=O)C(NC(=O)Cc4ccc(C5=NCCCN5)cc4)C3SC2)n1 (centres unmarked) [Example 98]	0.5 to 1.25 µg/mL (≈ 0.905 to 2.26 µM)	–	10 to 50 µg/mL (≈ 18.1 to 90.5 µM)	0.000391 to 0.0078 µg/mL (≈ 0.000707 to 0.0141 µM)	–
Cc1ccnc(SCC2=C(C(=O)O)N3C(=O)C(NC(=O)Cc4ccc(C5=NCCCN5)cc4)C3SC2)n1 (centres unmarked) [Example 102, 3-[(4-methyl-pyrimide-2-yl)-thiomethyl]-7-[4-(1,4,5,6-tetrahydropyrimide-2-yl)-phenylacetamido]-Δ3-cephem-4-carboxylic acid]	1.6 to 2.5 µg/mL (≈ 2.97 to 4.64 µM)	–	10 to 50 µg/mL (≈ 18.6 to 92.8 µM)	0.008 to 0.0156 µg/mL (≈ 0.0149 to 0.029 µM)	–
COc1cc(C(=N)N)ccc1OCC(=O)NC1C(=O)N2C(C(=O)O)=C(CSc3nncs3)CSC12 (centres unmarked) [Example 127]	0.156 to 0.391 µg/mL (≈ 0.291 to 0.729 µM)	0.0625 to 0.078 µg/mL (≈ 0.116 to 0.145 µM)	–	0.000391 to 0.0078 µg/mL (≈ 0.000729 to 0.0145 µM)	–
